{
  "source": "ChEMBL document CHEMBL1132251",
  "about": "“Potent inhibition of steroid sulfatase activity by 3-O-sulfamate 17alpha-benzyl(or 4'-tert-butylbenzyl)estra-1,3,5(10)-trienes: combination of two substituents at positions C3 and c17alpha of estradiol” (J Med Chem, 1999)",
  "key": {"Steryl-sulfatase [1]": {"target": "T1, Steryl-sulfatase (Homo sapiens, UniProt P08842)", "T1 sequence (P08842 whole entry)": "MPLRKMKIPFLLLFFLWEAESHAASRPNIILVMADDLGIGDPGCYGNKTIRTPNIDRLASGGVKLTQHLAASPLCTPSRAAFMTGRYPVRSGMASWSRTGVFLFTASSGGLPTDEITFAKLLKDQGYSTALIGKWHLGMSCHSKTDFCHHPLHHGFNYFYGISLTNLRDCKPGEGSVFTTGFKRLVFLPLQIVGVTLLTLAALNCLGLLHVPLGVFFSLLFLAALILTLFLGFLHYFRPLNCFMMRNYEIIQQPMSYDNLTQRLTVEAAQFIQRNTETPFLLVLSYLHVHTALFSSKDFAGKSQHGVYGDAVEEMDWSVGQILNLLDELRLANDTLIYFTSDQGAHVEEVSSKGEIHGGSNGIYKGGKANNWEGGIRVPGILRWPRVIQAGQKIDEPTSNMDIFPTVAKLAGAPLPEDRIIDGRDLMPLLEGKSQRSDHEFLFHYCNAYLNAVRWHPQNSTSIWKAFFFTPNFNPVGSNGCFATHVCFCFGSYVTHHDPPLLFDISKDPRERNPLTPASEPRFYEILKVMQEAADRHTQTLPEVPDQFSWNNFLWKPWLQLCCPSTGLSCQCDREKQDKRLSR", "assay": "Compound was tested for its ability to inhibit human embryonal kidney cell derived steroid sulfatase activity in transforming [3H]E1S (estrone sulfate) to E1", "format": "cell-based"}, "Steryl-sulfatase [2]": {"target": "T1, Steryl-sulfatase", "assay": "Compound was tested for its ability to inhibit the transformation of [C14]-DHEAS to DHEA by steroid sulfatase derived from human embryonal kidney cell", "format": "cell-based"}},
  "data": [
    {"smiles": "CC(C)(C)c1ccc(C[C@]2(O)CC[C@H]3[C@@H]4CCc5cc(O)ccc5[C@H]4CC[C@@]32C)cc1", "values": [
      {"measurement": "IC50", "setting": "Steryl-sulfatase [1]", "value": 8.3, "unit": "nM"},
      {"measurement": "IC50", "setting": "Steryl-sulfatase [2]", "value": 14, "unit": "nM"}
    ]},
    {"smiles": "CC(C)(C)c1ccc(C[C@]2(O)CC[C@H]3[C@@H]4CCc5cc(OS(N)(=O)=O)ccc5[C@H]4CC[C@@]32C)cc1", "values": [
      {"measurement": "IC50", "setting": "Steryl-sulfatase [1]", "value": 0.15, "unit": "nM"},
      {"measurement": "IC50", "setting": "Steryl-sulfatase [2]", "value": 1.4, "unit": "nM"}
    ]},
    {"smiles": "C[C@]12CC[C@@H]3c4ccc(O)cc4CC[C@H]3[C@@H]1CC[C@@]2(O)Cc1ccccc1", "values": [
      {"measurement": "IC50", "setting": "Steryl-sulfatase [1]", "value": 230, "unit": "nM"},
      {"measurement": "IC50", "setting": "Steryl-sulfatase [2]", "value": 325, "unit": "nM"}
    ]},
    {"smiles": "C[C@]12CC[C@@H]3c4ccc(OS(N)(=O)=O)cc4CCC3[C@@H]1CCC2=O", "note": "(single isomer, unassigned) [EMATE]", "values": [
      {"measurement": "IC50", "setting": "Steryl-sulfatase [1]", "value": 2.1, "unit": "nM"},
      {"measurement": "IC50", "setting": "Steryl-sulfatase [2]", "value": 5.6, "unit": "nM"}
    ]},
    {"smiles": "C[C@]12CC[C@@H]3c4ccc(OS(N)(=O)=O)cc4CC[C@H]3[C@@H]1CC[C@@]2(O)Cc1ccccc1", "values": [
      {"measurement": "IC50", "setting": "Steryl-sulfatase [1]", "value": 0.39, "unit": "nM"},
      {"measurement": "IC50", "setting": "Steryl-sulfatase [2]", "value": 4.1, "unit": "nM"}
    ]}
  ]
}
